Measurements from paper PMC7247319, “The mitochondria-targeted peptide SS-31 binds lipid bilayers and modulates surface electrostatics as a key component of its mechanism of action” (The Journal of Biological Chemistry, 2020).
Where a SMILES comes first, the peptide text is derived from it. [ ]: non-standard residue; d: D form. Dmt = Cc1cc(O)cc(C)c1C[C@H](N)C(=O)O

Test system: LUVs containing 20 mol % TOCL or POPG
Test: Zeta potential measurements of LUVs with increasing peptide
Conditions: LUVs 100 μM total lipid, n = 3
Experimental: Figure 3. SS-31 binding and surface electrostatics. A, binding isotherms. Peptide was titrated with LUVs of the indicated composition (20% TOCL, [SS-31] = 7.5 μM and 20% POPG, [SS-31] = 3.8 μM) at 30-nmol total lipid increments in the presence of different concentrations of added KCl. Values shown are means ± S.D. (error bars) (n = 3), and lines show data fits based on Equation S3. […] B and C, effect of SS-31 binding on surface charge. Measurements of ζ (B) and ANS fluorescence (C) are shown as a function of [SS-31]/[lipid]^eff for membranes containing 20% TOCL and 20% POPG as indicated. Values shown are means ± S.D. (error bars) (n = 3).
To continue this analysis, we determined the relationship between SS-31 binding and surface electrostatics by two complementary approaches. We first performed zeta potential (ζ) measurements of LUVs containing 20 mol % TOCL or POPG with increasing [SS-31] (Fig. 3B). […] As an independent technique, we measured the effect of SS-31 on surface electrostatics using 1-anilinonaphthalene-8-sulfonic acid (ANS), a fluorescent reporter whose binding to anionic bilayers increases as the magnitude of the ψs is reduced, measured as an increase in probe emission intensity ([42]) (Fig. 3C and Fig. S9D). […]

In the case of `Cc1cc(O)cc(C)c1C[C@H](NC(=O)[C@H](N)CCCNC(=N)N)C(=O)N[C@@H](CCCCN)C(=O)N[C@@H](Cc1ccccc1)C(N)=O` [SS-31, D-Arg-2′6′-dimethyl-Tyr-Lys-Phe-NH2] (H-[dR][Dmt]KF-NH2), the “zeta potential (ζ) at saturation with increasing peptide” value is reported as about −30 mV.
